Where two headings read alike, the source gives them in different places.
Assays:
α-synuclein fibrils = α-synuclein fibrils (Homo sapiens, UniProt P37840); test: Fluorescence titration with α-synuclein fibrils; format: binding
Aβ42 fibrils = target: T1, Aβ42 fibrils (Homo sapiens, UniProt P05067); test: Fluorescence titration with Aβ42 fibrils; details: monodisperse BTA dimers; 0.5 μM Aβ42; PBS 1× pH 7.4, 298 K; errors at 95% confidence limit; read-out: Dissociation constant (Kd) for binding to Aβ42 fibrils
T1 construct: monomeric amyloid-b1-42; purchased Stratech A-1167-2-RPE
T1 sequence (P05067 672-713 limits assumed): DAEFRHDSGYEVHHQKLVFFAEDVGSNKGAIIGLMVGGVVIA

tau fibrils (htau 0N4R) = target: T2, tau fibrils (htau 0N4R) (Homo sapiens, UniProt P10636); test: Fluorescence titration with tau fibrils; details: monodisperse BTA dimers; 0.5 μM tau; PBS 1× pH 7.4, 298 K; errors at 95% confidence limit; read-out: Dissociation constant (Kd) for binding to tau fibrils
T2 construct: purchased InVivo BioTech Services GmbH, Germany
T2 sequence (P10636 1-383 isoform P10636-6): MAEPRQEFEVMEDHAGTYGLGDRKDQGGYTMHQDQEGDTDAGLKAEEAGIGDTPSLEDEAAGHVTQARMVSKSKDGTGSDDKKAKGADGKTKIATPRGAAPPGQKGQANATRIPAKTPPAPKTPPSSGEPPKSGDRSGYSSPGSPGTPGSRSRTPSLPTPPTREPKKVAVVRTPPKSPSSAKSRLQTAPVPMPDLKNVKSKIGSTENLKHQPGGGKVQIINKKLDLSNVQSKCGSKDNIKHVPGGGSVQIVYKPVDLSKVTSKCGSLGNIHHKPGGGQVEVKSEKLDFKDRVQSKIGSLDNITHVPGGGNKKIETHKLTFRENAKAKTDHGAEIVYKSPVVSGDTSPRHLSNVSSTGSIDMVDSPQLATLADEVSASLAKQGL

[1] = Solubility for fluorescence titrations in PBS; format: physicochemical; details: PBS 1× titration conditions
Description: Eqn (1)–(3) can be fit to the two sets of titration data in Fig. 3 to determine the dissociation constant Kd and brightness (ef) of the free and bound BTA dimer, and in the case of high affinity binding, the concentration of binding sites on the protein fibrils. In all cases, the titration data fit well to a 1 : 1 binding isotherm, and the lines shown in Fig. 3 are the calculated lines of best fit.
Fluorescent titrations with the polydisperse mixtures of BTA dimers were used to measure the apparent binding affinities for α-synuclein fibrils in the same way as described above for the monodisperse BTA dimers. The titration data fit well to a 1 : 1 binding isotherm allowing for the fluorescence emission from the free dye as described above, and the results are summarised in Table 2. […] The dissociation constants for the other polydisperse BTA dimers are in the same range as those measured for the monodisperse analogues. […]
5. Fluorescence titrations […]
The fluorescence spectra were analysed using a Microsoft Excel spreadsheet to fit the changes in fluorescence intensity at fixed wavelengths to a 1:1 binding isotherm by optimizing the association constant, the optical brightness of the free and bound guest, and the concentration of protein binding sites using purpose written VBA macros. […]
Figure S25. Fluorescence titration of compound 14. […]
Figure S26. Fluorescence titration of compound 15. […]

[2] = target: T3, α-synuclein aggregates (LB509/pS129-positive Lewy bodies) (Homo sapiens, UniProt P37840); test: Staining of brain sections from patients with Parkinson's disease; details: compound 100 nM
T3 construct: tissue Cambridge Brain Bank; host or cells: post-mortem human brain sections, Parkinson's disease, substantia nigra
Description: (§1) Brain sections from patients with Parkinson's disease were labelled with antibodies against α-synuclein (LB509 and pS129) and stained with compounds 13, 14 and 15 (Fig. 8a). LB509/pS129-positive Lewy bodies, that were identified as cytoplasmic spheres, were stained by both compounds 14 and 15 but not by compound 13. […] To assess any potential cross-reactivity with other pathological amyloid aggregates, such as Aβ plaques and neurofibrillary tangles of tau, brain sections from patients with Alzheimer's disease were labelled with antibody against tau (dako tau) and Aβ (4G8) and stained with compounds 13, 14 and 15 (Fig. 8b).
(§2) Fig. 8 Fluorescence microscope images of human brain sections. (a) Sections from patients with Parkinson's disease labelled with antibodies against α-synuclein (LB509 and pS129) and stained with compounds 13, 14 and 15 (100 nM). (b) Sections from patients with Alzheimer's disease labelled with antibodies against tau (dako tau) and Aβ (4G8) and stained with compounds 13, 14 and 15 (1 μM). Scale bar 20 μm.
(§3) Frozen brain tissues from neuropathologically confirmed cases of PD and AD were obtained from the Cambridge Brain Bank (Table S3). Tissue blocks were post-fixed in 4% paraformaldehyde and cryoprotected before snap freezing in OCT. Brain sections (15 μm) were generated using a cryostat (Bright OTF5000) for immunohistochemistry and compound staining.
(§4) Table S3. Details of human tissue used (SN substantia nigra, FL frontal lobe) Case no Diagnosis Braak Stage Brain region Age
9. Immunohistochemistry and Staining
Fixed brain sections were washed with 70% EtOH and allowed to air dry for 20 min before incubation overnight at 4°C with either a mixture of monoclonal antibodies for α-syn (1:500, ab27766, Abcam) and pS129 α-syn (1:500, ab51253, Abcam) for PD sections or a mixture of monoclonal antibody for Aβ (1:500, 800701, Biolegend) and polyclonal antibody for human tau (1:500, A002401-2, Agilent) for AD sections. Sections were washed with PBS 3 x 15 min and incubated for 3 h at room temperature in secondary antibody, either a mixture of goat anti- […]
A11011, ThermoFisher) for PD sections or a mixture of goat anti-mouse ALEXA-647 (1:1000, A21235, ThermoFisher) and goat anti-rabbit ALEXA-546 (1:1000, A11035, ThermoFisher) for AD sections. Compounds 13, 14 and 15 were also diluted in the secondary antibody preparation at stated concentrations. Sections were washed with PBS 3 x 10 min and once with 70% EtOH 5 min before blocking autofluorescence with Autofluorescence Inhibitor (2160, Millipore) for 5 min. After 3 x 1 min washes in 70% EtOH sections were mounted using Fluorosave mounting medium (345789, Millipore). Fluorescence images were taken using a Leica DMI4000B.

[3] = target: Tau-positive neuronal inclusions (Homo sapiens, UniProt P10636); test: Staining of brain sections from patients with Alzheimer's disease (tau); details: compound 1 μM
Chain of Tau-positive neuronal inclusions (P10636 623-708 limits assumed): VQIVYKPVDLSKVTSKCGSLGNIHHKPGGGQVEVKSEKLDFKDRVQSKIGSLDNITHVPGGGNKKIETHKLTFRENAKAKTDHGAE
Description: as §1, §2, §3, §4
(§5) 9. Immunohistochemistry and Staining […]
(§6) A11011, ThermoFisher) for PD sections or a mixture of goat anti-mouse ALEXA-647 (1:1000, A21235, ThermoFisher) and goat anti-rabbit ALEXA-546 (1:1000, A11035, ThermoFisher) for AD sections. […] Fluorescence images were taken using a Leica DMI4000B.

[4] = test system: 4G8-positive extracellular plaques (Aβ); test: Staining of brain sections from patients with Alzheimer's disease (Aβ); set-up: species or system human; details: compound 1 μM
Description: as §1, §2, §3, §4, §5, §6

[5] = target: α-synuclein sonicated fibrils (Homo sapiens, UniProt P37840); test: TIRFM imaging of α-synuclein aggregates in vitro; details: nanomolar 15 (4 nM, 200 nM) vs 5 μM ThT; fibrils from 200 nM monomer
Description: The highest affinity BTA dimers were investigated as fluorescence imaging agents for protein aggregates. Fig. 7 compares in vitro imaging of α-synuclein aggregates with 15 and with thioflavin T (ThT). ThT is widely used to image aggregates, because it has a very low fluorescence emission intensity in the free state, and there is a large increase in fluorescence emission on binding to protein aggregates. The corresponding change in fluorescence emission intensity is much lower for the BTA dimers described here (see Fig. 3).
Fig. 7 TIRFM images of α-synuclein sonicated fibrils in the presence of (a) 4 nM 15, (b) 200 nM 15 and (c) 5 μM ThT. Fibrils were obtained from 200 nM samples of the monomer. All images have the same contrast. Scale bar 10 μm.
7. Total internal reflection fluorescence microscopy (TIRFM) imaging
Imaging was performed using a homebuilt total internal reflection fluorescence microscope as reported previously.7 Briefly, this imaging mode restricts detectable axial fluorescence signal to within ~200 nm from the glass-water interface. […] Fluorescence was collected by the same objective and was separated from the returning TIR beam by a dichroic (Di01-R405/488/561/635, Semrock), and passed through […]
respectively). The images were recorded on an EMCCD camera (Evolve 512, Photometrics) operating in frame transfer mode (EMGain of 11.5 e−/ADU and 250 ADU/photon). […]

[6] = monodisperse BTA dimers, 1 μM α-synuclein, PBS 1× pH 7.4, 298 K, errors at 95% confidence limit, read-out: Dissociation constant (Kd) for binding to α-synuclein fibrils

Kd (α-synuclein fibrils; [6]) [nM]	Kd (Aβ42 fibrils) [nM]	Kd (tau fibrils (htau 0N4R)) [nM]	Solubility (sufficient to determine accurate dissociation constants) [1]	Staining of LB509/pS129-positive Lewy bodies [2]	Staining of tau-positive neuronal inclusions [3]	Kd (α-synuclein fibrils; monomeric BTA analogue, fluorescence titration, read-out: Kd for α-synuclein (binding affinity too low to measure)) [nM]	Image brightness compared with ThT [5]	Co-localisation with α-synuclein antibodies elsewhere in the brain section [2]	SMILES	Staining of 4G8-positive extracellular plaques [4]
–	–	–	not sufficiently soluble	not	no staining	–	–	–	CN(C)c1ccc(-c2nc3ccc(OCCOCCOCCOc4ccc5nc(-c6ccc(N(C)C)cc6)sc5c4)cc3s2)cc1 [Compound 13]	no staining
–	–	–	–	–	–	> 1000	–	–	COCCOCCOCCOc1ccc2nc(-c3ccc(N(C)C)cc3)sc2c1 [monomeric BTA analogue]	–
2.7 ± 1.5	78 ± 26	1000 ± 300	–	stained	no staining	–	brighter	–	CN(C)c1ccc(-c2nc3ccc(OCCOCCOCCOCCOCCOCCOCCOCCOCCOc4ccc5nc(-c6ccc(N(C)C)cc6)sc5c4)cc3s2)cc1 [Compound 15]	no staining

Second part, the compound before the results:

SMILES	Kd (α-synuclein fibrils; [6]) [nM]	Kd (Aβ42 fibrils) [nM]	Kd (tau fibrils (htau 0N4R)) [nM]	Solubility (sufficient to determine accurate dissociation constants) [1]	Staining of LB509/pS129-positive Lewy bodies [2]	Staining of tau-positive neuronal inclusions [3]	Kd (α-synuclein fibrils; monomeric BTA analogue, fluorescence titration, read-out: Kd for α-synuclein (binding affinity too low to measure)) [nM]	Image brightness compared with ThT [5]	Co-localisation with α-synuclein antibodies elsewhere in the brain section [2]	Staining of 4G8-positive extracellular plaques [4]
CN(C)c1ccc(-c2nc3ccc(OCCOCCOCCOCCOCCOCCOCCOCCOCCOCCOCCOCCOCCOCCOCCOCCOCCOCCOCCOCCOCCOc4ccc5nc(-c6ccc(N(C)C)cc6)sc5c4)cc3s2)cc1 [Compound 17]	210 ± 180	320 ± 75	280 ± 48	–	–	–	–	–	–	–
CN(C)c1ccc(-c2nc3ccc(OCCOCCOCCOCCOCCOCCOCCOCCOCCOCCOCCOCCOCCOCCOCCOc4ccc5nc(-c6ccc(N(C)C)cc6)sc5c4)cc3s2)cc1 [Compound 16]	35 ± 15	7 ± 5	110 ± 57	–	–	–	–	–	–	–
CN(C)c1ccc(-c2nc3ccc(OCCOCCOCCOCCOCCOCCOc4ccc5nc(-c6ccc(N(C)C)cc6)sc5c4)cc3s2)cc1 [Compound 14]	190 ± 140	1400 ± 1600	900 ± 700	–	stained	no staining	–	–	significant amounts of co-localisation	no staining

— publication PMC8246084, “Mapping the binding site topology of amyloid protein aggregates using multivalent ligands” (Chemical Science, 2021)
